Test results as given in patent US11260036B2, “[18F]-labelled lactate derivative as PET radiotracer” (GRANDIS, priority 2016, dated 2022).

Legend:
[1] = tested on: SQD9 tumors; assay: In vivo tracer uptake assay (PET/CT), mice bearing SQD9 tumors; conditions: IV 250 μCi, PET-CT
Description: In vivo tracer uptake assay. All in vivo experiments were performed with approval of UCL Comité d'Ethique pour l'Expérimentation Animale (approval ID 2014/UCL/MD/014) according to national and European animal care regulations. To avoid inter-subject variability, 500,000 SiHa-shCTR and SiHa-shMCT1 cells in a HBSS:Matrigel 1:1 solution were respectively injected in the left and right flank of same 6.5 week-old male NMRI nude mice. In another model, 1,000,000 SQD9 cells in a HBSS:Matrigel 1:1 solution were injected on the back of same 6.5 week-old male NMRI nude mice. Experiments were performed on tumors of ˜10 mm in diameter, i.e., about 3 weeks tumor cell inoculation. For intravenous injection, MCT1 inhibitor AR-C155858 (Tocris) was dissolved in 0.9% NaCl with 10% (2-hydroxypropyl)-β-cyclodextrin at a concentration of 2.5 mg/ml (Vijay et al., Pharm Res, 2015, 32, 1894-1906). For intravenous injection, MCT1 inhibitor AZD3965 (Selleckchem) was first dissolved in pure ethanol at a concentration of 100 mg/ml, then diluted in 0.9% NaCl with 10% (2-hydroxypropyl)-β-cyclodextrin at a final concentration of 2.5 mg/ml. […] Tumor localization was determined on PET/CT fused images. […] Tracer uptake is expressed as standard uptake value (SUV) calculated on the mean value of voxels within the manually defined 3D volume of interest (VOI).

[2] = tested on: HeLa cells; assay: In vitro tracer uptake assay, HeLa; format: cell-based, human; conditions: 6 min after delivery of 45 μCi/ml of the tracer
Description: (§1) Cells and gene silencing. HeLa and SiHa human cervix squamous cell carcinoma and SDQ9 human laryngeal squamous cell carcinoma were from ATCC. Cells were routinely cultured in DMEM (Thermo Fischer) containing glucose (4.5 g/L), Glutamax and 10% FBS. MCT1-deficient and control SiHa cells were produced as previously described (De Saedeleer et al., Oncogene, 2014, 33, 4060-4068), using the following vectors from Open Biosystems: TRCN0000038340 (shMCT1-1) and TRCN0000038339 (shMCT1-2). Control shRNA (shCTR) was Addgene plasmid 1864.
(§2) In vitro tracer uptake assay. A modified version of the ^14C-Lactate uptake assay described by Draoui et al., (Draoui et al., Bioorg Med Chem, 2013, 21, 7107-7117) was used. Briefly, 250,000 cells were plated in flat-bottom 24 well plates (t=0). When cells were attached (t=6 h), medium was replaced by DMEM without glucose and glutamine, containing 10% dialyzed FBS and 10 mM of L-lactate, pH 7.0. Cells were then incubated overnight at 37° C., 5% CO2. On the day of experiment, (t=24 h), cells medium was removed and cells were briefly washed twice with a modified KREBS solution without glucose (HEPES 25 mM, NaCl 120 mM, KCl 4.8 mM, KH2PO4 1.2 mM, MgSO4 1.2 mM, CaCl2 2 mM). […] Cells were lysed with NaOH 0.1 N, and ^18F activity was measured in the cell lysate using a Wiper Gold γ-counter (Laboratory Technologies). Activity is expressed as % of initial dose. […]

[3] = tested on: SiHa cells; assay: In vitro tracer uptake assay, SiHa; format: cell-based, human; conditions: 6 min after delivery of 45 μCi/ml of the tracer
Description: as §1, §2

[4] = tested on: SiHa tumors; assay: In vivo tracer uptake assay (PET/CT), mice bearing SiHa-shCTR and SiHa-shMCT1 tumors
Description: In vivo tracer uptake assay. All in vivo experiments were performed with approval of UCL Comité d'Ethique pour l'Expérimentation Animale (approval ID 2014/UCL/MD/014) according to national and European animal care regulations. To avoid inter-subject variability, 500,000 SiHa-shCTR and SiHa-shMCT1 cells in a HBSS:Matrigel 1:1 solution were respectively injected in the left and right flank of same 6.5 week-old male NMRI nude mice. In another model, 1,000,000 SQD9 cells in a HBSS:Matrigel 1:1 solution were injected on the back of same 6.5 week-old male NMRI nude mice. Experiments were performed on tumors of ˜10 mm in diameter, i.e., about 3 weeks tumor cell inoculation. For intravenous injection, MCT1 inhibitor AR-C155858 (Tocris) was dissolved in 0.9% NaCl with 10% (2-hydroxypropyl)-β-cyclodextrin at a concentration of 2.5 mg/ml (Vijay et al., Pharm Res, 2015, 32, 1894-1906). For intravenous injection, MCT1 inhibitor AZD3965 (Selleckchem) was first dissolved in pure ethanol at a concentration of 100 mg/ml, then diluted in 0.9% NaCl with 10% (2-hydroxypropyl)-β-cyclodextrin at a final concentration of 2.5 mg/ml. (±)-[^18F]-3-fluoro-2-hydroxypropionate (150-250 μCO was injected in the tail vein of the animals 10 min after the delivery of AR-C155858 (5 mg/Kg), AZD3965 (5 mg/Kg), or vehicle (70 μL). At indicated times, a whole body 10-min static PET imaging (small-animal Mosaic PET Scan system, Philips Medical Systems) directly followed by a 10 min transmission CT scan (NanoSPECT/CT Small Animal Imager, Bioscan; source: 370 MBq ^137Cs; X-Ray tube voltage: 55 kVp; number of projections: 180; exposure time 1000 ms) were performed on isoflurane-anesthetized mice kept at 35° C. PET images were corrected for attenuation and reconstructed using fully 3D iterative algorithm 3D-RAMLA in a 128×128×120 matrix, with a voxel size of 1 mm^3. CT images were reconstructed with a voxel size of 0.221×0.221×0.221 mm^3. 2D Regions of interest (ROIs) were manually delineated on PET images using the PMOD software version 3.5 (PMOD technologies Ltd). Tumor localization was determined on PET/CT fused images. Ribcage and skin were used as internal and external limits, respectively. Tracer uptake is expressed as standard uptake value (SUV) calculated on the mean value of voxels within the manually defined 3D volume of interest (VOI).

[5] = tested on: SQD9 cells; assay: In vitro tracer uptake assay, SQD9; format: cell-based, human; conditions: SQD9, 6 min after delivery of 45 μCi/ml of the tracer
Description: as §1, §2

[6] = target: T1, rabbit muscle LDH (Oryctolagus cuniculus, UniProt P13491); assay: Lactate dehydrogenase assay (reduction of 3-fluoropyruvate); format: biochemical; conditions: 10 IU rabbit muscle LDH, NADH 0.2 mM, 37° C., 24 h, HPLC-MS detection
T1 construct: 10 IU of rabbit muscle LDH (Sigma); purchased Sigma; host or cells: rabbit muscle
Description: A potential reduction of 3-fluoropyruvate to 3-fluoro-2-hydroxypropionate by lactate dehydrogenase (LDH) was measured in vitro using a previously reported protocol (Goncalves et al., Tetrahedron: Asymmetry, 1996, 7, 1237-1240).
Briefly, 14.6 mg of nonradioactive 3-fluorpyruvate were dissolved in 4 mL of double distilled water containing 10 IU of rabbit muscle LDH (Sigma) and 5.3 IU of formate dehydrogenase (Sigma). The reaction was started by adding NADH to a final concentration of 0.2 mM and sodium formate to a final concentration of 40 mM. The final volume was adjusted to 5 mL with double distilled water. The reaction was carried out at 37° C. for 24 h under constant, gentle shaking at 120 rpm. Then, solution was spun through a 10 kDa filter to remove enzymes, and 3-fluoro-2-hydroxypropionate was detected by HPLC-MS using an Accela U(HPLC) equipped with a Luna Phenomenex 250*4.60 HPLC column and an ThermoScientific LTQ—ORBITRAP—XL fitted an electrospray ionization source working in negative mode.

[7] = target: T2, MCT1 (Homo sapiens, UniProt P53985); assay: In vivo inhibition of tracer uptake by MCT1 inhibitors, SQD9 tumor-bearing mice (PET/CT); conditions: 5 mg/Kg IV 10 min before tracer, images 30 min after tracer; SQD9 tumors, liver
T2 construct: the experiment was repeated using SQD9 human laryngeal squamous cell carcinoma cells in mice; endogenous in cells; host or cells: SQD9 xenograft tumours in NMRI nude mice
T2 sequence (P53985 1-500): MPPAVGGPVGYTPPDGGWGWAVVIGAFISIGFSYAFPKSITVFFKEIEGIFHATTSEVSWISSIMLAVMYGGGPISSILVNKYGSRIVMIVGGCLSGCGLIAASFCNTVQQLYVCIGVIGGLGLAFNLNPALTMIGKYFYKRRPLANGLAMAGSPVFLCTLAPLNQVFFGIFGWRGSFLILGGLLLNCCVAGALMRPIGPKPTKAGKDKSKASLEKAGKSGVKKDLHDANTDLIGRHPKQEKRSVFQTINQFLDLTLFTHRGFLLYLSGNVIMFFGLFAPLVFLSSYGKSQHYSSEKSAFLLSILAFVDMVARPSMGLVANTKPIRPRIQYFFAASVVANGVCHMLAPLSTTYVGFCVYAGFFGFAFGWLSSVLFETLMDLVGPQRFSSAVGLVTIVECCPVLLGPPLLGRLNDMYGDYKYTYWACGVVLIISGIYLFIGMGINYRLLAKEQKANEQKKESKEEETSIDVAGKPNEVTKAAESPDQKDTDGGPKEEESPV
T2 sequence (P35613 140-385 partner limits assumed): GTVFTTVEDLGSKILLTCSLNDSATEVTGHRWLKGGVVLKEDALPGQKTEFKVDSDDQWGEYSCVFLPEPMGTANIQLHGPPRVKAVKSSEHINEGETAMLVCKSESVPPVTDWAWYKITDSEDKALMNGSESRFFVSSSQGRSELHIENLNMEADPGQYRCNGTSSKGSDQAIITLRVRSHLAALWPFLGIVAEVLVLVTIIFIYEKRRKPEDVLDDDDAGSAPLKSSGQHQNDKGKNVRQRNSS
Description: In vivo tracer uptake assay. […] In another model, 1,000,000 SQD9 cells in a HBSS:Matrigel 1:1 solution were injected on the back of same 6.5 week-old male NMRI nude mice. Experiments were performed on tumors of ˜10 mm in diameter, i.e., about 3 weeks tumor cell inoculation. […] 2D Regions of interest (ROIs) were manually delineated on PET images using the PMOD software version 3.5 (PMOD technologies Ltd). Tumor localization was determined on PET/CT fused images. Ribcage and skin were used as internal and external limits, respectively. Tracer uptake is expressed as standard uptake value (SUV) calculated on the mean value of voxels within the manually defined 3D volume of interest (VOI).

In the case of `O=C(O)C(O)C[18F]` (racemic) [(±)-[^18F]-3-fluoro-2-hydroxypropionate, [^18F]-3-fluoro-2-hydroxypropionic acid], the “tracer uptake by SQD9 tumors” value [1] is reported as “the tumors captured and accumulated the tracer”, the “intracellular 18F dose” value [2] is reported as ~0.1 % of the initial dose and the “intracellular 18F dose” value [3] is reported as ~0.1 % of the initial dose. The “bone labeling indicating defluorination” value ([4]; 30 min after tracer injection) was “no detectable bone labeling”, the “discrimination of SiHa-shCTR and SiHa-shMCT1 tumors by the tracer” value ([4]; 30 min after tracer injection) was “no apparent discrimination of SiHa-shCTR and SiHa-shMCT1” and the “bone labeling indicating defluorination” value ([4]; 60 min after tracer injection) was “spinal and joint labeling was detected, indicating that some defluorination had occurred”. For the same molecule, the “time of best tumor contrast after tracer injection” value ([4]; IV 150-250 μCi, PET/CT) was 30 min, the “labeling of other organs (tracer distribution)” value ([4]; IV 150-250 μCi, PET/CT, 30 min after tracer injection) was “the gut and the liver, were also labeled” and the “route of tracer clearance” value ([4]; bladder labeling before and after systemic MCT1 inhibition) was “urine is the preferred route”. For the same molecule, the “intracellular 18F dose” value [5] was ~0.3 % of the initial dose.

3-fluoropyruvate was tested, and the “reduction of 3-fluoropyruvate to 3-fluoro-2-hydroxypropionate by LDH” value [6] was “can be reduced to 3-fluoralacate by lactate dehydrogenase (LDH)”.

In the case of `Cc1[nH]nc(C(F)(F)F)c1Cc1sc2c(c1C(=O)N1C[C@](C)(O)CO1)c(=O)n(C)c(=O)n2C(C)C` [AZD3965], the “change in tracer uptake (SUV) after MCT1 inhibitor” value [7] is reported as “highly significant decrease in tracer uptake in the tumors and liver”.
